The target in test [1] is glyceraldehyde 3-phosphate dehydrogenase (GAPDH) (Homo sapiens, UniProt P04406). Put plainly: Selectivity: dimerization or activity of other NAD/NADP+-dependent enzymes. Type of test: biochemical.
Test [2] concerns the target T1, Canton G6PD (Homo sapiens, UniProt P11413, R459L).
T1 construct: His (pET-28a) (N, cleaved yes); made in house; host or cells: E. coli C43 (DE3)
Put plainly: Native gel electrophoresis, dimerization. On the procedure:
(§1) 200 ng of recombinant enzymes were incubated with the compound (varying in assays) for 10 minutes at room temperature. To prevent streaking and artifacts in native PAGE gel, the samples in a native state (no boiling of sample and no reducing agent in sample buffer) were electrophoresed by […]. Cross-linking assay was initiated by incubating 500 ng of recombinant enzymes in PBS with 0.1% of glutaraldehyde and different concentrations of NADP^+ (0, 10, 100, 1000 μM) or MgCl2 (0, 1, 10, 100 mM). The mixture was incubated for 10 minutes at room temperature, which was followed by the addition of 100 mM Tris (pH 8.0) at a final concentration to terminate the reaction. The samples were electrophoresed as described above.

Test [3] concerns G6PD in zebrafish embryo lysates. Put plainly: G6PD activity in lysates of pooled zebrafish embryos. Type of test: in vivo. Particulars: lysates of pooled AG1-treated embryos. On the procedure: Embryos were dechorinated with pronase at 24 hours post fertilization (hpf) and treated with 50 μg/ml of chloroquine and/or AG1 by directly adding the compounds to the well. For ROS measurements, embryos were incubated with compounds for 2 hours, and then the ROS detecting reagent (CM-H2DCFDA) was added at a final concentration of 500 ng/ml to the well for a total treatment time of 5 hours. One embryo was placed to each well of a black, opaque 96-well plate. The florescence was analyzed with excitation/emission at 485/525 nm. After ROS assays, embryos at about 32 hpf were pooled and lysed in buffer containing 50 mM Tris (pH 7.4), 150 mM NaCl, 1 mM EDTA, 0.1% NP-40, and protease inhibitor cocktail, which was followed by three cycles of freeze and thawing in liquid nitrogen. The lysate was centrifuged at 14,000 rpm at 4° C. for 15 minutes. Total protein concentration in the supernatants (total lysate) was determined by Bradford method. 50 μg of total lysate was loaded onto 10% SDS-PAGE gels and the protein level was examined by Western blot using anti-G6PD antibody (Abcam (G6PD: AB87230)). 10 μg of total lysate was used for enzymatic assay. 50 μg of the lysate was used to measure NADPH levels using a NADPH quantification kit (Biovision), according to the manufacturer's instructions.

In test [4] the target is T2, WT G6PD (Homo sapiens, UniProt P11413).
T2 construct: His (pET-28a) (N, cleaved yes); made in house; host or cells: E. coli C43 (DE3)
T2 sequence (P11413 whole entry): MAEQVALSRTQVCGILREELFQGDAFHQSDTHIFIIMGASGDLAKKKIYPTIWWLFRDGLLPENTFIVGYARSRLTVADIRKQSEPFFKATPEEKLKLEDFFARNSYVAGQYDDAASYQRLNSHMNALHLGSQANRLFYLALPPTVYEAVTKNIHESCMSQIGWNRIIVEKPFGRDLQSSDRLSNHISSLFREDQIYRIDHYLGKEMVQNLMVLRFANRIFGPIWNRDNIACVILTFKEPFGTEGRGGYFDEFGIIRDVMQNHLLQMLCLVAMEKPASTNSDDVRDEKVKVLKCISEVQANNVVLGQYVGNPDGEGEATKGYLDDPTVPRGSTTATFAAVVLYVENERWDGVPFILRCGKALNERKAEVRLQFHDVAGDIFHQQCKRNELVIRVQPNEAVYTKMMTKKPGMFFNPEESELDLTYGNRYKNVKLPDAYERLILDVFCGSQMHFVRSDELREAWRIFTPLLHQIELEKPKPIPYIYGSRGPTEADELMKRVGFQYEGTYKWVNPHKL
In words: WT G6PD enzyme activity, recombinant enzyme. Type of test: biochemical. The protocol:
(§2) Enzyme activity was measured by monitoring NADPH production, which was coupled with diaphorase converting resazurin to fluorescent resorufin (excitation at 565 nm and emission at 590 nm); fluorescent signal was thus proportional to G6PD activity. Assays were performed at 25° C. and run for 5 minutes in buffer containing 50 mM Tris (pH 7.4), 0.5 mM EDTA, 3.3 mM MgCl2, 1 U/ml diaphorase, 0.1 mM resazurin. 10 ng of recombinant enzymes or 10 μg of cell lysates was used for the assay with 10 μM NADP^+ (Sigma) as cofactor and 100 μM G6P (Sigma) as substrate. Steady-state kinetic parameters were obtained by varying concentrations of NADP^+ (0-10 μM) with a constant concentration of G6P (100 μM) and similarly for G6P (0-100 μM) with a constant concentration of NADP^+ (10 μM) with 10 ng of recombinant enzymes. Data analysis was performed using GraphPad Prism software v.6 (GraphPad Software, La Jolla, Calif. USA). Kinetic parameters were obtained by fitting the data to the Michaelis-Menten equation.

For test [5], the target named is 6-phosphogluconate dehydrogenase (6PGD) (Homo sapiens, UniProt P52209). Put plainly: Selectivity: dimerization or activity of other NAD/NADP+-dependent enzymes. In kind it is biochemical.
Sequence of 6-phosphogluconate dehydrogenase (6PGD) (P52209 whole entry): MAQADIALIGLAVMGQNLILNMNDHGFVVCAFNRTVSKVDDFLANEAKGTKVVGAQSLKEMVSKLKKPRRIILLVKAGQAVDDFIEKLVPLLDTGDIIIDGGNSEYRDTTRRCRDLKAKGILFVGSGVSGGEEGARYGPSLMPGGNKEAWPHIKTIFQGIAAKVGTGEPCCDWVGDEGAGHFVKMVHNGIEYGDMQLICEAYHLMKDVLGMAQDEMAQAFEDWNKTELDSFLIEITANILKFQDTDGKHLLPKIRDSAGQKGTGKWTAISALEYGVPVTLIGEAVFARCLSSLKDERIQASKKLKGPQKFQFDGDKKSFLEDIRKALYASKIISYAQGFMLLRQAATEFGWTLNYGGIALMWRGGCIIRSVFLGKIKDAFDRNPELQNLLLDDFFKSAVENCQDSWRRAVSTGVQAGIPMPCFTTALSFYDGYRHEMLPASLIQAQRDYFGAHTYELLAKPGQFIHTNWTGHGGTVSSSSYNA
In test [6] the target is T3, A- (V68M, N126D) G6PD (Homo sapiens, UniProt P11413, N126D/V68M).
T3 construct: His (pET-28a) (N, cleaved yes); made in house; host or cells: E. coli C43 (DE3)
T3 sequence (P11413 whole entry V68M/N126D): as the sequence (P11413 whole entry) above, with V68M, N126D counted along it
Put plainly: Native gel electrophoresis, dimerization of variant. On the procedure:
as §1

Test [7] addresses T4, Kaiping (R463H) G6PD (Homo sapiens, UniProt P11413, R463H).
T4 construct: His (pET-28a) (N, cleaved yes); made in house; host or cells: E. coli C43 (DE3)
Described as above. The protocol:
as §1

The target in test [8] is T5, Mediterranean (S188F) G6PD (Homo sapiens, UniProt P11413, S188F).
T5 construct: His (pET-28a) (N, cleaved yes); made in house; host or cells: E. coli C43 (DE3)
T5 sequence (P11413 whole entry S188F): as the sequence (P11413 whole entry) above, with S188F counted along it
Described as above. On the procedure: as §1

For test [9], the target named is T6, G6PD in fibroblast cells carrying Mediterranean variant (Homo sapiens, UniProt P11413, S188F).
T6 construct: host or cells: subject-derived fibroblast cell line
T6 sequence (P11413 2-515 S188F limits assumed): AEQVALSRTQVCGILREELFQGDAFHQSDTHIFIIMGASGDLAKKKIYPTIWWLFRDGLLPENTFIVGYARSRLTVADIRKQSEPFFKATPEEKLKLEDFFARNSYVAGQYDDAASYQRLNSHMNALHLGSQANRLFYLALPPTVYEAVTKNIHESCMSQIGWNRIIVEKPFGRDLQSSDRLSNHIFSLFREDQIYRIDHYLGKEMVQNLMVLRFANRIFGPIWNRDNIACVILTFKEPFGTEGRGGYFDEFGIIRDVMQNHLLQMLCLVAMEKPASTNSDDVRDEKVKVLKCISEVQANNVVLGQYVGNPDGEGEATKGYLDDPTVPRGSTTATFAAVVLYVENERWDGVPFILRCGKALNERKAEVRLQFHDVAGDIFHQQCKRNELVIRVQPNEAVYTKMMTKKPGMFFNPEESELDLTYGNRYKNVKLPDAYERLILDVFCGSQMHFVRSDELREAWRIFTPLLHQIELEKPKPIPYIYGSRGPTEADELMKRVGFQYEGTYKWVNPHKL
Put plainly: Cycloheximide chase in fibroblasts. In kind it is cell-based. Particulars: cycloheximide treatment. The protocol:
Lymphocytes derived from a normal subject (HG 00866) and a G6PD-deficient subject carrying Canton variant in G6PD (HG 02367) were purchased from Coriell Institute and cultured in RPMI 1640 supplemented with 15% fetal bovine serum (FBS), 100 U/ml penicillin, and 100 μg/ml streptomycin. An SH-SY5Y neuroblastoma cell line was cultured in Dulbecco's Modification of Eagle's Medium/Ham's F-12 50/50 Mix supplemented with 10% FBS, 100 U/ml penicillin, and 100 μg/ml streptomycin. A G6PD-deficient subject-derived fibroblast cell line carrying Mediterranean variant and normal fibroblast cell line as control were purchased from Coriell Institute (GM 01152) and ThermoFisher Scientific (C0135C), respectively, and cultured in minimum essential medium supplemented with 15% FBS, 100 U/ml penicillin, and 100 μg/ml streptomycin. All the cell lines were maintained at 37° C. in a humidified incubator with an atmosphere of 5% of CO2 and 95% air.
50,000 cells (SH-SH5Y cells or fibroblast cells) or 100,000 cells (lymphocytes) were seeded in a 12-well plate and incubated overnight. The cells were subjected to serum starvation (50-75%) for 48 hours and treated with 50 μg/ml of cycloheximide at different time points (0-48 hours). The cells were treated with the compound (1 μM) for 48 hours together with cycloheximide. […]

In test [10] the target is T3, A- (V68M, N126D) G6PD. In words: G6PD variant enzyme activity. In kind it is biochemical. On the procedure: as §2
The target of test [11] is T4, Kaiping (R463H) G6PD. Put plainly: G6PD variant enzyme activity. In kind it is biochemical. The protocol:
as §2

Test [12] concerns the target T5, Mediterranean (S188F) G6PD. Put plainly: G6PD variant enzyme activity. In kind it is biochemical. On the procedure: as §2

SMILES strings stand for the structures.

T4 sequence (P11413 whole entry R463H): as the sequence (P11413 whole entry) above, with R463H counted along it
Sequence of glyceraldehyde 3-phosphate dehydrogenase (GAPDH) (P04406 whole entry, species assumed): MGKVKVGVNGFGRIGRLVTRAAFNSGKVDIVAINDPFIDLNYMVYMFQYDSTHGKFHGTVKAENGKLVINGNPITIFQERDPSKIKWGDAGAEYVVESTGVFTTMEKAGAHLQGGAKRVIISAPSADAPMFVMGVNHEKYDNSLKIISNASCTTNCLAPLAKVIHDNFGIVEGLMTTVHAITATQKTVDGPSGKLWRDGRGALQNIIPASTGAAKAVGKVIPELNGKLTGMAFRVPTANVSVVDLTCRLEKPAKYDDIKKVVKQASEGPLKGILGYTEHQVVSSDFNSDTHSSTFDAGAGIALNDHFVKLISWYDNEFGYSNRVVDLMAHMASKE
T1 sequence (P11413 whole entry R459L): as the sequence (P11413 whole entry) above, with R459L counted along it

`SCCNCCc1c[nH]c2ccccc12` [AG1, 2-[2-(1H-indol-3-yl)ethylamino]ethanethiol]: the “effect on dimerization or activity” value in [1] and in [5] was “no effect” throughout. In test [2], the “formation of active dimers” value is recorded as “promoted formation of active dimers”. Besides, the G6PD activity result in [3] is “slight increase”. Moreover, the “increase of WT G6PD activity over basal activity” value in test [4] is given as “about 20%”. In addition, the dimerization of variant entry in test [6], in test [7] and in test [8] was “promoted their dimerization” in each case. Besides, the “stability of G6PD” value in [9] is “stabilized”. The activation of variant entry in test [10], in [11] and in test [12] was “up to 2 fold” each time.

For the origin of these results see patent US20200223826A1, “Glucose-6-Phosphate Dehydrogenase (G6PD)-Modulating Agents And Methods Of Treating G6PD Deficiency” (The Board of Trustees of the Leland Stanford Junior …, priority 2017, published 2020).
